The values that follow come from patent publication US11453660B2, “Androgen receptor and glucocorticoid receptor modulators” (ONCOSTELLAE, S.L., priority 2017, dated 2022).

Experiment [1] addresses T1, Human Glucocorticoid Receptor (Homo sapiens, UniProt P04150).
T1 construct: endogenous in cells; host or cells: cytosol from IM-9 cell line
T1 sequence (P04150 1-777): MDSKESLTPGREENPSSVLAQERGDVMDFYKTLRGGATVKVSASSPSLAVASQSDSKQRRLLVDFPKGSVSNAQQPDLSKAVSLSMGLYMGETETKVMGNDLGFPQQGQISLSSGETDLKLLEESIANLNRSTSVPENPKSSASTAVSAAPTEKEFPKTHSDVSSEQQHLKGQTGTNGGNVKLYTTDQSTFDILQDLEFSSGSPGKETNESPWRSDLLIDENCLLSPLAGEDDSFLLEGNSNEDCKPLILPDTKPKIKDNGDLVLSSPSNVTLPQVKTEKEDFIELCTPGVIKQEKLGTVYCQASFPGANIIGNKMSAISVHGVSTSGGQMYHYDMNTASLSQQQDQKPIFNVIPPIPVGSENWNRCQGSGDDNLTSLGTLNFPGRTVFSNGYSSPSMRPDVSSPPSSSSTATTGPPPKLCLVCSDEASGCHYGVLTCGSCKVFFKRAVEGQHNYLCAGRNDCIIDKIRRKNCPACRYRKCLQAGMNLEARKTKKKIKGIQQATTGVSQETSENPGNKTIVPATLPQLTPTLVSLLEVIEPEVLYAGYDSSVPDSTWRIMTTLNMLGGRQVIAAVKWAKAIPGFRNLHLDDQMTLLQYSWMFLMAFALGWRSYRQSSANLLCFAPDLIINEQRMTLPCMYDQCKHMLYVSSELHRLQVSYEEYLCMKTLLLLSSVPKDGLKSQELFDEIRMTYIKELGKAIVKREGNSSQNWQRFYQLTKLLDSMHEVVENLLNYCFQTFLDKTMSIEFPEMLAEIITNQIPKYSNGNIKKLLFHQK
Put plainly: Competition Binding in IM-9 Human Glucocorticoid Receptor (GR IM-9). The conditions noted are these: cytosol from IM-9 cell line, 1.5 nM [3H]-Dexamethasone, 4° C. for 6 hours. The essentials: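 Radioligand competition using 100 μg IM-9 cell cytosol and 1.5 nM [3H]-dexamethasone, incubated 6 h at 4° C in TES/molybdate buffer, pH 7.4. Filtration on PEI-treated GF/B filters, scintillation counting; nonspecific binding defined with 10 μM triamcinolone.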

Another experiment addresses T2, AR-Receptor (Homo sapiens, UniProt P10275).
T2 sequence (P10275 1-920 Q868H): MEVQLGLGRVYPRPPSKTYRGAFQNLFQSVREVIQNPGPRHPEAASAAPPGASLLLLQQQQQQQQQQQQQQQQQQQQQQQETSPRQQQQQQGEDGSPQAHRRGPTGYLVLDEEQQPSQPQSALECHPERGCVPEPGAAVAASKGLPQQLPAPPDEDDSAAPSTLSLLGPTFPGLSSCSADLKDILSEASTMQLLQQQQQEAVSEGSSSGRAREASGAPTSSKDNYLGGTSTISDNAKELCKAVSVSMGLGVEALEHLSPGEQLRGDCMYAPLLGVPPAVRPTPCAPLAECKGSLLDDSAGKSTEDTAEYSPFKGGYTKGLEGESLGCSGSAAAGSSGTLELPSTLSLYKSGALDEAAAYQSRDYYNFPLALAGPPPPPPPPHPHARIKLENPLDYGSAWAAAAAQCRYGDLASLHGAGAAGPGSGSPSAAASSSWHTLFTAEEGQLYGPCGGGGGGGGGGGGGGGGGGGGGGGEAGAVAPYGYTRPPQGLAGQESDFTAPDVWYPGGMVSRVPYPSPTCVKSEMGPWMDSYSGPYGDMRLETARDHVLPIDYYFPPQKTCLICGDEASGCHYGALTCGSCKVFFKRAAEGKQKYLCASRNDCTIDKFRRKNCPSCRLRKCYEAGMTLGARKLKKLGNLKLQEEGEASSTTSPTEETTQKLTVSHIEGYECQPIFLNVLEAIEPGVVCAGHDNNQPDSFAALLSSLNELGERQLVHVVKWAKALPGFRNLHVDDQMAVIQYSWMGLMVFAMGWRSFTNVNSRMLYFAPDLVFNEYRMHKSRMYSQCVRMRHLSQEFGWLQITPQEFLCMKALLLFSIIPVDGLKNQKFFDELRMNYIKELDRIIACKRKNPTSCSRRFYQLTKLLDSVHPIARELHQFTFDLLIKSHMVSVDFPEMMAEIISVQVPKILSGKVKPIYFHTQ
Put plainly: Functional Assay AR-Receptor (MDA-MB-453 cells, luciferase). It is filed as cell-based. The conditions noted are these: antagonist effect in the presence of DHT 1 nM, 24 h, luciferase luminescence, read-out: AR antag KB. The gist of the method:
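MDA-MB-453 cells, 8000/well, were switched to medium with 0.1% FBS and exposed to compounds for 24 h at 37 °C. Antagonist mode used 1 nM DHT. After lysis and a freeze-thaw cycle, luciferase luminescence was read.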

A word on the IC50: it is the concentration that inhibits the measured activity by half. A low value points to greater potency. What is called Kb is the equilibrium dissociation constant of an antagonist, usually derived from a functional assay. As to `CC(=O)C1=C(C)NC(N)=C(C(=O)OCC2CCCCC2)C1c1csc2c(C#N)cccc12` (stereo not drawn) [Example D30, Cyclohexylmethyl 5-acetyl-2-amino-4-(7-cyanobenzo[b]thiophen-3-yl)-6-methyl-1,4-dihydropyridine-3-carboxylate], the IC50 in experiment [1] was below 100 nM. For the same molecule, at AR-Receptor, the Kb is 100 to 1000 nM.

In experiment [1], `CC(=O)C1=C(C)NC(C)=C(C(=O)OCC2CC2)C1c1csc2ncccc12` (stereo not drawn) [Example C24, Cyclopropylmethyl 5-acetyl-2,6-dimethyl-4-(thieno[2,3-b]pyridin-3-yl)-1,4-dihydropyridine-3-carboxylate] came in with an IC50 below 100 nM. In addition, the Kb at AR-Receptor was at least 1000 nM.

In turn, `CC(=O)C1=C(C)NC(C)=C(C(=O)OCc2cccnc2)C1c1csc2c(Br)cccc12` (stereo not drawn) [Example C58, Pyridin-3-ylmethyl 5-acetyl-4-(7-bromobenzo[b]thiophen-3-yl)-2,6-dimethyl-1,4-dihydropyridine-3-carboxylate] showed an IC50 in experiment [1] below 100 nM. For the same molecule, the Kb at AR-Receptor was in the range of 100 to 1000 nM.

In experiment [1], `CC(=O)C1=C(C)NC(C)=C(C(=O)OCc2cccnc2)C1c1csc2ccccc12` (stereo not drawn) [Example C48, Pyridin-3-ylmethyl 5-acetyl-4-(benzo[b]thiophen-3-yl)-2,6-dimethyl-1,4-dihydropyridine-3-carboxylate] returned an IC50 of 100 to 1000 nM. In addition, the Kb on AR-Receptor lay within 100 to 1000 nM.

The molecule `COC(=O)C1=C(C)NC(N)=C(C(=O)OCC(C)(C)C)C1c1csc2c(C#N)cccc12` (stereo not drawn) [Example D43, 5-Methyl 3-neopentyl 2-amino-4-(7-cyanobenzo[b]thiophen-3-yl)-6-methyl-1,4-dihydropyridine-3,5-dicarboxylate] had an IC50 in experiment [1] below 100 nM. In addition, on AR-Receptor, the Kb was at least 1000 nM.

In the case of `CC(=O)C1=C(C)NC(N)=C(C(=O)OCc2cccc(F)c2)C1c1csc2c(C#N)cccc12` (stereo not drawn) [Example D32, 3-Fluorobenzyl 5-acetyl-2-amino-4-(7-cyanobenzo[b]thiophen-3-yl)-6-methyl-1,4-dihydropyridine-3-carboxylate], the IC50 in experiment [1] was below 100 nM. Also, on AR-Receptor, the Kb lay in the range of 100 to 1000 nM.

For `CC(=O)C1=C(C)NC(C)=C(C(=O)OC(C)(C)c2ccccc2)C1c1csc2ncccc12` (stereo not drawn) [Example C71, 2-phenylpropan-2-yl 5-acetyl-2,6-dimethyl-4-(thieno[2,3-b]pyridin-3-yl)-1,4-dihydropyridine-3-carboxylate], the IC50 in experiment [1] is below 100 nM. The Kb on AR-Receptor was at least 1000 nM.

In experiment [1], `CC1=C(C(=O)OCC2CC2)C(c2csc3c(C#N)cccc23)C(C(=O)OCC2CC2)=C(N)N1` (stereo not drawn) [Example D46, Bis(cyclopropylmethyl) 2-amino-4-(7-cyanobenzo[b]thiophen-3-yl)-6-methyl-1,4-dihydropyridine-3,5-dicarboxylate] yielded an IC50 below 100 nM. At AR-Receptor, the Kb was at least 1000 nM.

`COC(=O)C1=C(C=O)NC(C2CC2)=C(C(=O)OC)C1c1csc2c(C#N)cccc12` (stereo not drawn) [Example C117, Dimethyl 4-(7-cyanobenzo[b]thiophen-3-yl)-2-cyclopropyl-6-formyl-1,4-dihydropyridine-3,5-dicarboxylate] yielded an IC50 in experiment [1] below 100 nM. For the same molecule, the Kb on AR-Receptor is 100 to 1000 nM.

With `CC(=O)C1=C(C)NC(C)=C(C(=O)OCc2cccc(Br)c2)C1c1csc2ncccc12` (stereo not drawn) [Example C66, 3-bromobenzyl 5-acetyl-2,6-dimethyl-4-(thieno[2,3-b]pyridin-3-yl)-1,4-dihydropyridine-3-carboxylate], the IC50 in experiment [1] is below 100 nM. For the same molecule, at AR-Receptor, the Kb is below 100 nM.

For the molecule `CC(=O)C1=C(C)NC(C)=C(C(=O)OCc2ccc(-c3cccnc3)cc2)C1c1csc2ncccc12` (stereo not drawn) [Example L2, 4-(pyridin-3-yl)benzyl 5-acetyl-2,6-dimethyl-4-(thieno[2,3-b]pyridin-3-yl)-1,4-dihydropyridine-3-carboxylate], the IC50 in experiment [1] was below 100 nM. The Kb at AR-Receptor lay within 100 to 1000 nM.

With `CC(=O)C1=C(C)NC(C)=C(C(=O)OCC2CCOCC2)C1c1csc2ccc(Cl)cc12` (stereo not drawn) [Example C43, (Tetrahydro-2H-pyran-4-yl)methyl 5-acetyl-4-(5-chlorobenzo[b]thiophen-3-yl)-2,6-dimethyl-1,4-dihydropyridine-3-carboxylate], the IC50 in experiment [1] lay in the range of 100 to 1000 nM. On AR-Receptor, the Kb was below 100 nM.

In experiment [1], `CC(=O)C1=C(C)NC(C)=C(C(=O)OCc2ccccc2)C1c1csc2ccc(F)cc12` (stereo not drawn) [Example C41, Benzyl 5-acetyl-4-(5-fluorobenzo[b]thiophen-3-yl)-2,6-dimethyl-1,4-dihydropyridine-3-carboxylate] came in with an IC50 of 100 to 1000 nM. The antagonist equilibrium constant (Kb) at AR-Receptor was in the range of 100 to 1000 nM.

In the case of `CC(=O)C1=C(C)NC(C)=C(C(=O)OCc2ccc(C#N)cc2)C1c1csc2ncccc12` (stereo not drawn) [Example C73, 4-cyanobenzyl 5-acetyl-2,6-dimethyl-4-(thieno[2,3-b]pyridin-3-yl)-1,4-dihydropyridine-3-carboxylate], the IC50 in experiment [1] was below 100 nM. Further, the antagonist dissociation constant (Kb) on AR-Receptor was at least 1000 nM.

On to `CC(=O)C1=C(C)NC(C)=C(C(=O)OCc2ccncc2)C1c1csc2ccc(F)cc12` (stereo not drawn) [Example C46, Pyridin-4-ylmethyl 5-acetyl-4-(5-fluorobenzo[b]thiophen-3-yl)-2,6-dimethyl-1,4-dihydropyridine-3-carboxylate], for which the IC50 in experiment [1] was below 100 nM. In addition, at AR-Receptor, the Kb is 100 to 1000 nM.

Regarding `CC1=C(C#N)C(c2csc3c(C#N)cccc23)C(C(=O)OCC2CC2)=C(N)N1` (stereo not drawn) [Example D24, cyclopropylmethyl 2-amino-5-cyano-4-(7-cyanobenzo[b]thiophen-3-yl)-6-methyl-1,4-dihydropyridine-3-carboxylate], the IC50 in experiment [1] is below 100 nM. Moreover, the Kb on AR-Receptor lay within 100 to 1000 nM.

`CC(=O)C1=C(C)NC(C)=C(C(=O)OCc2ccccc2)C1c1csc2ncccc12` (stereo not drawn) [Example C39, Benzyl 5-acetyl-2,6-dimethyl-4-(thieno[2,3-b]pyridin-3-yl)-1,4-dihydropyridine-3-carboxylate]: the 50% inhibitory concentration (IC50) in experiment [1] is below 100 nM. Moreover, the Kb at AR-Receptor was at least 1000 nM.

Take `CC(=O)C1=C(C)NC(C)=C(C(=O)OCc2cccc(-c3ccncc3)c2)C1c1csc2ncccc12` (stereo not drawn) [Example L3, 3-(pyridin-4-yl)benzyl 5-acetyl-2,6-dimethyl-4-(thieno[2,3-b]pyridin-3-yl)-1,4-dihydropyridine-3-carboxylate]: the IC50 in experiment [1] was below 100 nM. For the same molecule, at AR-Receptor, the antagonist equilibrium constant (Kb) is 100 to 1000 nM.

As for `CC(=O)C1=C(C)NC(C)=C(C(=O)OCc2ccccc2Br)C1c1csc2ncccc12` (stereo not drawn) [Example C67, 2-bromobenzyl 5-acetyl-2,6-dimethyl-4-(thieno[2,3-b]pyridin-3-yl)-1,4-dihydropyridine-3-carboxylate], in experiment [1], the IC50 was below 100 nM. Moreover, the Kb on AR-Receptor was below 100 nM.

In experiment [1], `CC(=O)C1=C(C)NC(C)=C(C(=O)OCc2ccc(-c3ccncc3)cc2)C1c1csc2ncccc12` (stereo not drawn) [Example L1, 4-(pyridin-4-yl)benzyl 5-acetyl-2,6-dimethyl-4-(thieno[2,3-b]pyridin-3-yl)-1,4 dihydropyridine-3-carboxylate] came in with a half-inhibitory concentration (IC50) below 100 nM. In addition, the Kb at AR-Receptor is 100 to 1000 nM.

Turning to `COC(=O)C1=C(C)NC(C=O)=C(C(=O)OC)C1c1csc2c(C#N)cccc12` (stereo not drawn) [Example C119, Dimethyl 4-(7-cyanobenzo[b]thiophen-3-yl)-2-formyl-6-methyl-1,4-dihydropyridine-3,5-dicarboxylate], the IC50 in experiment [1] was below 100 nM. On AR-Receptor, the antagonist dissociation constant (Kb) fell in the range of 100 to 1000 nM.
